{"source": "patent US8012949B2", "about": "“Bisphosphonate compounds and methods with enhanced potency for multiple targets including FPPS, GGPPS, and DPPS” (The Board of Trustees of the University of Illinois, priority 2004, dated 2011)", "key": {"human FPPS": {"target": "T1, human FPPS (Homo sapiens, UniProt P14324)", "T1 construct": "made in house", "T1 sequence (P14324 1-419)": "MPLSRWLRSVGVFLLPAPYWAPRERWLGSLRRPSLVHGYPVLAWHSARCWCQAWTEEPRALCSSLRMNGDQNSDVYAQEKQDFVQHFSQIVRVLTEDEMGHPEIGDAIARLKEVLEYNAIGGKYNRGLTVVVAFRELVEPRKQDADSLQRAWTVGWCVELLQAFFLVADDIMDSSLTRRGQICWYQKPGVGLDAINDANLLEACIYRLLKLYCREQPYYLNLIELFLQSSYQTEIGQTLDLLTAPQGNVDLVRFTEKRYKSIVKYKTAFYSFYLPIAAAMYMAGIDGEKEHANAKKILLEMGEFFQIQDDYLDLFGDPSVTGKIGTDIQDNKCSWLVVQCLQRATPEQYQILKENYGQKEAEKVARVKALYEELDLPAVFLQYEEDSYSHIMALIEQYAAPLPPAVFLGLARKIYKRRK", "test": "human FPPS enzyme inhibition", "type": "biochemical", "from_the_text": "(§1) To test our polypharmaceutical hypothesis, we expressed three enzymes: human FPPS, GGPPS and DPPS, and tested each for their inhibition by a series of bisphosphonates."}, "SK-ES-1 sarcoma cells": {"system": "SK-ES-1 sarcoma cells", "test": "SK-ES-1 sarcoma mouse xenograft", "details": "daily intraperitoneal 5 μg, athymic nude mice, SK-ES-1 xenograft"}, "bone resorption": {"system": "bone resorption", "test": "Bone resorption IC50", "from_the_text": "(§2) A potential drawback to the use of bisphosphonates in treating non-bone resorption diseases is expected to be that they would be rapidly adsorbed onto bone. […]"}, "[1]": {"system": "NCI-H460 (lung large cell)", "test": "NCI-H460 cell growth inhibition (MTT)", "type": "cell-based, human", "details": "Table 1, experimental"}, "[2]": {"system": "MCF-7 (breast adenocarcinoma)", "test": "MCF-7 cell growth inhibition (MTT), incl. FOH/GGOH rescue", "type": "cell-based, human", "details": "for rescue from growth inhibition by geranylgeraniol (GGOH): GGOH 20 μM"}, "Vγ2Vδ2 T cells": {"system": "Vγ2Vδ2 T cells", "test": "γδ T cell activation (TNF-α release and proliferation)", "type": "cell-based, human", "summary_of_the_method": "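Vγ2Vδ2 T cell clones (CD4+ JN.24, CD4+ HF.2, CD8αα+ 12G12, CD4−8− HD.108) stimulated with phosphoantigens plus 0.05% glutaraldehyde-fixed APCs: CP.EBV B cells for CD4+ clones, Va-2 fibroblasts for others. TNF-α release and proliferation measured; curve minima from global fitting per experiment, maxima fitted per compound unconstrained.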"}, "[3]": {"test": "Adsorption onto bone in vivo", "from_the_text": "as §2"}, "[4]": {"system": "SF-268 (central nervous system glioblastoma)", "test": "SF-268 cell growth inhibition (MTT)", "type": "cell-based, human", "details": "Table 1, experimental"}, "human DPPS": {"target": "T2, human DPPS (Homo sapiens, UniProt Q5T2R2)", "T2 construct": "made in house", "T2 sequence (Q5T2R2 1-415)": "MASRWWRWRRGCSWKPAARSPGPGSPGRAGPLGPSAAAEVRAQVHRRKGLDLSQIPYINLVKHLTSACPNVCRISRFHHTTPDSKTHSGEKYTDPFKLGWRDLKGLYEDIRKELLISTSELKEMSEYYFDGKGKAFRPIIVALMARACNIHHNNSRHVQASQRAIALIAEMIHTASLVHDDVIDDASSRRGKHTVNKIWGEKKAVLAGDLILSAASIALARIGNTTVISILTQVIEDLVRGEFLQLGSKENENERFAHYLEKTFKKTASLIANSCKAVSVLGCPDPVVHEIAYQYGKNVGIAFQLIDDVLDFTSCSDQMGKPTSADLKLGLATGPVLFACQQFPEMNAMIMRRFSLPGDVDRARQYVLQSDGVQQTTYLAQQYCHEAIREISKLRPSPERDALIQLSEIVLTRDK", "T2 sequence (Q86YH6 1-399 partner)": "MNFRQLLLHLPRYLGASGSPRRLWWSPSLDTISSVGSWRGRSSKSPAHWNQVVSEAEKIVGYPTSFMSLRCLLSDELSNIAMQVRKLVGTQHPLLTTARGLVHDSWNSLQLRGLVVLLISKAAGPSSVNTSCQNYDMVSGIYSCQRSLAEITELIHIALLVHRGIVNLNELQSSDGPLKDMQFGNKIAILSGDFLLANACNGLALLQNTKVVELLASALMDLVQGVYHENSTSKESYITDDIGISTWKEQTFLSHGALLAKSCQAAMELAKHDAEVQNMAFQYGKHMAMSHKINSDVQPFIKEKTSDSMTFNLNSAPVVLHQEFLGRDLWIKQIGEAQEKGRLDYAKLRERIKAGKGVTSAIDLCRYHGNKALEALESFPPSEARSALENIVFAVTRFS", "test": "human DPPS enzyme inhibition", "type": "biochemical", "from_the_text": "as §1"}, "MDA-MB-231 cells": {"system": "MDA-MB-231 cells", "test": "Matrigel invasion assay", "type": "cell-based, human", "details": "Homo sapiens", "from_the_text": "Tumor cell invasiveness and in vivo results. […] ."}, "[5]": {"details": "Homo sapiens, MCF7, FIG. 2A, read-out: IC50, MCF-7 tumor cell growth inhibition"}}, "note": "Like-named read-outs stand apart in the source and are kept apart here."}
{"smiles": "CCCCCCCCCCOc1ccc[n+](CC(P(=O)([O-])O)P(=O)(O)O)c1", "note": "(stereo not shown) [BPH-715]", "values": [{"measurement": "Ki", "setting": "human FPPS; Table 1, experimental, read-out: FPPS pKi (converted)", "result": 50.1, "unit": "nM"}, {"measurement": "reduction in tumor cell growth", "setting": "SK-ES-1 sarcoma cells", "result": "even more pronounced (p=0.032 versus zoledronate)"}, {"measurement": "IC50", "setting": "bone resorption", "result": "~800", "unit": "nM"}, {"measurement": "IC50", "setting": "[1]; Homo sapiens, NCI-H460, read-out: NCI-H460 pIC50 (converted)", "result": 63.1, "unit": "nM"}, {"measurement": "rescue from growth inhibition by addition of farnesol", "setting": "[2]; FOH fixed 20 μM", "result": "no rescue"}, {"measurement": "rescue from growth inhibition by geranylgeraniol (GGOH)", "setting": "[2]", "result": "only a partial rescue"}, {"measurement": "IC50", "setting": "[2]; [5]", "result": "~50", "unit": "nM"}, {"measurement": "IC50", "setting": "[2]; Homo sapiens, MCF7, Table 1, experimental, read-out: MCF-7 pIC50 (converted)", "result": 200, "unit": "nM"}, {"measurement": "IC50", "setting": "[2]; Homo sapiens, MCF7, Table 2, -log10(value, M), read-out: MCF-7 Cell pIC50 (converted)", "result": 107, "unit": "nM"}, {"measurement": "γδ T cell activation", "setting": "Vγ2Vδ2 T cells", "result": "potent activity"}, {"measurement": "EC50", "setting": "Vγ2Vδ2 T cells; Homo sapiens, T-cell, Table 2, -log10(value, M), read-out: γδ T Cell Avg pED50 (converted)", "result": 891, "unit": "nM"}, {"measurement": "adsorption onto bone in vivo", "setting": "[3]", "result": "only very weakly adsorbed"}, {"measurement": "IC50", "setting": "[4]; Homo sapiens, SF-268, read-out: SF-268 pIC50 (converted)", "result": 100, "unit": "nM"}, {"measurement": "Ki", "setting": "human DPPS; Table 1, experimental, read-out: DPPS_pKi (converted)", "result": 5.01, "unit": "nM"}]}
{"smiles": "O=P(O)(O)C(O)(Cn1ccnc1)P(=O)(O)O", "note": "[zoledronate, reference compound]", "values": [{"measurement": "reduction in tumor cell growth", "setting": "SK-ES-1 sarcoma cells", "result": "significant (p<0.01) reduction in tumor cell growth versus control"}, {"measurement": "IC50", "setting": "bone resorption", "result": "~70", "unit": "nM"}, {"measurement": "IC50", "setting": "MDA-MB-231 cells", "result": "~40000", "unit": "nM"}, {"measurement": "IC50", "setting": "[2]; [5]", "result": "~15000", "unit": "nM"}, {"measurement": "IC50", "setting": "human DPPS", "result": "~5000", "unit": "nM"}, {"measurement": "effect on DPPS", "setting": "human DPPS", "result": "inhibited"}]}
{"smiles": "O=P(O)(O)C(O)(Cc1cccc(-c2cccc(NS(=O)(=O)c3ccc4ccccc4c3)c2)c1)P(=O)(O)O", "note": "[BPH-675, 1-Hydroxy-2-[3′-(Naphthalene-2-sulfonylamino)-biphenyl-3-yl]ethylidene-1,1-bisphosphonic acid]", "values": [{"measurement": "effect on FPPS", "setting": "human FPPS", "result": "no effect"}, {"measurement": "FPPS pKi (M)", "setting": "human FPPS; Table 1, experimental", "result": 5.9, "unit": "M"}, {"measurement": "NCI-H460 pIC50 (M)", "setting": "[1]", "result": 5.3, "unit": "M"}, {"measurement": "IC50", "setting": "[2]; FIG. 2A, read-out: IC50, MCF-7 tumor cell growth inhibition", "result": 5000, "unit": "nM"}, {"measurement": "rescue from growth inhibition by geranylgeraniol (GGOH)", "setting": "[2]", "result": "essentially fully rescued"}, {"measurement": "MCF-7 pIC50 (M)", "setting": "[2]; Table 1, experimental", "result": 5.2, "unit": "M"}, {"measurement": "γδ T cell activation", "setting": "Vγ2Vδ2 T cells", "result": "no effect at all"}, {"measurement": "adsorption onto bone in vivo", "setting": "[3]", "result": "only very weakly adsorbed"}, {"measurement": "SF-268 pIC50 (M)", "setting": "[4]", "result": 5.2, "unit": "M"}, {"measurement": "effect on DPPS", "setting": "human DPPS", "result": "no effect"}, {"measurement": "DPPS pKi", "setting": "human DPPS; Table 1, experimental", "result": 6.5}]}
